Assay results as given in paper PMC4741889, “Ligand-based chemoinformatic discovery of a novel small molecule inhibitor targeting CDC25 dual specificity phosphatases and displaying in vitro efficacy against melanoma cells” (Oncotarget, 2015).

Experiments:
CDC25C = biological target: T1, CDC25C (Homo sapiens, UniProt P30307); assay: Ki from OMFP hydrolysis kinetics (Lineweaver-Burk), CDC25C; format: biochemical; conditions: 40 nM CDC25C, 1–25 μM OMFP; mean ± S.E.; read-out: Ki CDC25C
T1 construct: Recombinant forms of the catalytic domains of CDC25A, -B and -C were obtained through the vectors pET28a-CDC25A-cd, pET28a-CDC25B-cd and pET28a-CDC25C-cd; made in house
T1 sequence (P30307 321-428 limits assumed): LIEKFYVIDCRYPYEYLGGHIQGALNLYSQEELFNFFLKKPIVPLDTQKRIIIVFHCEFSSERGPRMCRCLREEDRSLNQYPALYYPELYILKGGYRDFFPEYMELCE
Method: To measure the inhibition constant (Ki) of the recombinant forms of CDC25A, -B and -C towards the various inhibitors, the affinity of the different forms of CDC25 towards OMFP was measured either in the absence or in the presence of fixed concentrations of the various inhibitors. The reaction mixture contained 20 nM CDC25A, or 10 nM CDC25B, or 40 nM CDC25C, and different concentrations of the various inhibitors in 500 μL final volume of 20 mM Tris-HCl, pH 7.8, 1 mM DTT. DMSO was used as vehicle control. […] The corresponding Lineweaver-Burk plots allowed the calculation of the KM for OMFP and of the Vmax of OMFP hydrolysis, expressed as a.u./minmax. […] The Ki values were obtained from the decrease of a.u./minmax in the presence of the inhibitor, according to the equation a.u./mimmax’ = a.u./mimmax/{1 + ([I]/Ki)}, where a.u./mimmax’ represents the Vmax measured in the presence of the concentration [I] of the inhibitor. The Ki values were obtained from at least three independent experiments and reported as mean ± S.E.

A2058 cells [1] = assay: Intracellular ROS level (DCFH-DA), A2058 cells; format: cell-based, human
Method: The high redox reactivity of quinonoid molecules, like compound 7, could greatly perturb the intracellular redox state. […] The oxidant effect of 7 was also evaluated after cell pre-treatment with two antioxidant molecules, such as N-acetyl-cysteine (NAC) and the specific inhibitor of NADPH oxidase, apocynin. To this aim, A2058 and SAN cells were pre-incubated for 1 h with 10 mM NAC or 45 min with 0.5 mM apocynin and then treated for 4 h with 100 μM compound 7. […] The cytotoxic activity of 7 could be mediated by the observed increase of ROS level.
The intracellular ROS level was monitored using the oxidation-sensitive fluorescence probe DCFH-DA. Cells were seeded into 6-well-plates (3 × 10^5 cells/plate) for 24 h at 37°C and then treated at various times with 100 μM compound 7 or 0.5% DMSO. DCFH-DA was added in the dark at 10 μM final concentration 30-min before the end of each incubation; then, cells were collected, washed in PBS, and finally resuspended in 500 μL PBS for fluorimetric analysis. Measurements were realized in a Cary Eclipse fluorescence spectrophotometer (Varian); excitation and emission wavelengths were set at 485 nm and 530 nm, respectively; both excitation and emission slits were set at 10 nm. The effect of 7 on ROS production was also estimated after pretreatment of cells with 10 mM NAC for 1 h.

A2058 cells [2] = assay: Apoptosis, subdiploid DNA content by PI flow cytometry, A2058 cells; format: cell-based, human
From the text: PI incorporation followed by flow cytometric analysis was used to detect the effect of 7 on the number of nuclei with a sub-diploid content, a typical hallmark of apoptosis. A time-dependent increase of apoptosis was evident in both A2058 and SAN cells and in particular, the effect of 7 on cell death program was already evident after 24-h treatment (Figure 7). […] To further investigate on the capacity of 7 to induce apoptosis, the enzymatic activity of caspase-3, the final effector of apoptotic program, was monitored.
[…] After each treatment, cells were harvested with trypsin, centrifuged and the pellet was resuspended in phosphate-buffered saline (PBS). For cell cycle analysis, cells were fixed with 70% (v/v) cold ethanol and stored at −20°C for 1 h. Then, cells were washed with cold PBS, centrifuged and the pellets were resuspended in 200 μL of a non-lysis solution containing 50 μg/mL PI. For the evaluation of apoptosis, cells were not fixed in ethanol and directly resuspended in 200 μL of a hypotonic lysis solution containing 50 μg/mL PI. After incubation at 4°C for 30 min, cells were analyzed with a FACScan flow cytometer (Becton Dickinson) for evaluating the distribution in cell cycle phases or the presence of nuclei with a DNA content lower than the diploid.

Ki (CDC25C): 3.1 ± 0.22 µM
SMILES: O=C(O)C1CCCCC1c1c2ccc(=O)cc-2oc2cc(O)ccc12 (stereo not shown) [Compound 7, 2-(6-hydroxy-3-oxo-3H-xanthen-9-yl)cyclohexanecarboxylic acid]
intracellular ROS level (A2058 cells [1]; A2058, 100 μM, significant after 4 h): time-dependent increase of the ROS level
increase of ROS level after apocynin pre-treatment (A2058 cells [1]; A2058, 0.5 mM apocynin 45 min, then 100 μM 7 for 4 h): did not prevent the increase of ROS level
increase of ROS level after NAC pre-treatment (A2058 cells [1]; A2058, 10 mM NAC 1 h, then 100 μM 7 for 4 h): prevented by the NAC treatment
level of apoptosis caused by 7 in the presence of Z-VAD-FMK (A2058 cells [2]; A2058, 100 μM 7 + 100 μM Z-VAD-FMK, 48 h): significantly decreased
apoptosis (nuclei with sub-diploid content) (A2058 cells [2]; A2058, 100 μM, 24-72 h): increase of apoptosis became significant at 48 h
apoptosis after NAC pre-treatment (A2058 cells [2]; A2058, NAC pre-treatment, 100 μM 7, 48 h): in a great part reverted
